Source: patent publication US11850247B2, “Antiviral compounds” (REGENTS OF THE UNIVERSITY OF MINNESOTA, priority 2020, dated 2023)

How the values were obtained:
[1] = Cytotoxicity in TZM-GFP cells (XTT); format: cell-based; conditions: human, 72 hours exposure, XTT
Description: (§1) The cytotoxicity of each compound was also determined in TZM-GFP cells. Cells were plated at a density of 1×10^4 cells per well in a 96-well plate and were continuously exposed to increasing concentrations of a compound for 72 hours. The number of viable cells in each well was determined using a Cell Proliferation Kit II (XTT), and 50% cytotoxicity concentration (CC50) values were determined. All the cell-based assays were conducted in duplicate and in at least two independent experiments. For the EC50 and CC50 dose responses, values were plotted in GraphPad Prism 5 and analyzed with the log (inhibitor) vs. normalized response-variable slope equation. Final values were calculated in each independent assay and the average values were determined. Statistical analysis (calculation of standard deviation) was performed by using Microsoft Excel.

HIV-1 = assay: Anti-HIV-1 activity in TZM-GFP cells (viral LTR-activated GFP expression); format: cell-based; conditions: for EC50: Human immunodeficiency virus 1, HIV-1 strain MOI=1, GFP positive cells counted after 48 hours; for inhibition at 2 µM: Human immunodeficiency virus 1, 2 μM compound; for inhibition at 2 µM / inhibition at 20 µM: HIV-1 MOI=1; for inhibition at 20 µM: Human immunodeficiency virus 1, 20 μM compound
Description: The potency of HIV-1 inhibition by a compound was based on its inhibitory effect on viral LTR-activated GFP expression compared with that of compound-free (DMSO) controls. Briefly, TZM-GFP cells were plated at density of 1×10^4 cells per well in a 96-well plate. 24 hours later, media was replaced with increasing concentrations of compound. 24 hours post treatment, cells were exposed to an HIV-1 strain (MOI=1).
as §1

[2] = biological target: covalently-crosslinked hexameric CA A14C/E45C/W184A/M185A (CA121) (Human immunodeficiency virus type 1 group M subtype B, UniProt P12493, A146C/E177C/M317A/W316A); assay: Thermal shift assay (TSA), CA hexamer stability; format: binding, HIV-1; conditions: compound 20 μM, ΔTm=Tm−T0 vs DMSO
[3] = Microsomal stability assay, human liver microsomes; format: in vitro ADME
Description: The in vitro microsomal stability assay was conducted in duplicate in mouse and human liver microsomal systems, which were supplemented with nicotinamide adenine dinucleotide phosphate (NADPH) as a cofactor. […] The reaction was initiated by addition of 1 mM NADPH, followed by incubation at 37° C. A negative control was performed in parallel in the absence of NADPH to measure any chemical instability or non-NADPH dependent enzymatic degradation for each compound. At various time points (0, 5, 15, 30, and 60 minutes), 1 volume of reaction aliquot was taken and quenched with 3 volumes of acetonitrile containing an appropriate internal standard and 0.1% formic acid. The samples were then vortexed and centrifuged at 15,000 rpm for 5 minutes at 4° C. The supernatants were collected and analyzed by LC-MS/MS to determine the in vitro metabolic half-life (t1/2).

Row | Structure (SMILES) | CC50 at 72 h [1] [µM] | EC50 (HIV-1) [µM] | TSA ΔTm (° C.) [2] [°C] | half-life in HLMs relative to PF74 ([3]; human liver microsomes, ratio of t1/2 to that of PF74) [fold] | half-life at 1 μM ([3]; pH 7.4, with Cobicistat 0.5 μM (CYP3A inhibitor), human liver microsomes, 1 μM compound, NADPH, with 0.5 μM Cobicistat (CYP3A inhibitor), read-out: HLM (+Cobi) half-life (t1/2)) [h] | half-life in combination with Cobicistat compared with PF74 ([3]; with CYP3A inhibitor Cobicistat, microsome species not given) | inhibition at 2 µM (HIV-1) [%] | inhibition at 20 µM (HIV-1) [%]
1 | O=C(Cn1c(=O)[nH]c2ccccc2c1=O)N[C@@H](Cc1ccccc1)C(=O)N1CCC[C@H]1C(=O)Nc1ccccc1 [Example 33, (S)-1-((2-(2,4-dioxo-1,4-dihydroquinazolin-3(2H)-yl)acetyl)-L-phenylalanyl)-N-phenylpyrrolidine-2-carboxamide] | > 100 | 1.6 ± 0.1 | 2.5 | 44 | 9.63 | significantly longer half-life than that of PF74 |  | 
2 | Cc1ccc(N(C)C(=O)[C@H](Cc2ccccc2)NC(=O)CNC(=O)c2ccccc2)cc1 [Example 35, (S)—N-(2-((1-(methyl(p-tolyl)amino)-1-oxo-3-phenylpropan-2-yl)amino)-2-oxoethyl)benzamide] | > 50 | 1.6 ± 0.02 | 5.0 |  |  |  |  | 
3 | Cc1ccc(N(C)C(=O)[C@H](Cc2ccccc2)NC(=O)Cc2cccc3ccccc23)cc1 [Example 17, (S)—N-methyl-2-(2-(naphthalen-1-yl)acetamido)-3-phenyl-N-(p-tolyl)propanamide] | < 50 | 1 ± 0.2 | 5.7 |  |  |  |  | 
4 | Cc1ccc(N(C)C(=O)[C@H](Cc2ccccc2)NC(=O)Cn2cc(C)c(=O)[nH]c2=O)cc1 [Example 43, (S)—N-methyl-2-(2-(5-methyl-2,4-dioxo-3,4-dihydropyrimidin-1(2H)-yl)acetamido)-3-phenyl-N-(p-tolyl)propenamide] | > 50 |  | 0.6 |  |  |  | 7 | 85
5 | CN(C(=O)[C@H](Cc1ccccc1)NC(=O)Cc1cccc2ccccc12)c1cccc(F)c1 [Example 20, (S)—N-(3-fluorophenyl)-N-methyl-2-(2-(naphthalen-1-yl)acetamido)-3-phenylpropanamide] | < 50 |  | 5.4 |  |  |  | 44 | 97
6 | CN(C(=O)[C@H](Cc1ccccc1)NC(=O)CNC(=O)c1ccccc1)c1ccc(F)cc1 [Example 38, (S)—N-(2-((1-((4-fluorophenyl)(methyl)amino)-1-oxo-3-phenylpropan-2-yl)amino)-2-oxoethyl)benzamide] | > 50 |  | 2.2 |  |  |  | 12 | 97
7 | CN(C(=O)[C@H](Cc1ccccc1)NC(=O)CN1C(=O)NC2(CCCCC2)C1=O)c1ccccc1 [Example 22, 2-(2-(2,4-dioxo-1,3-diazaspiro[4.5]decan-3-yl)acetamido)-N-methyl-N,3-diphenylpropanamide] | > 100 | 8.9 ± 1.5 | 1.3 |  |  |  |  | 
8 | COc1ccc(N(C)C(=O)[C@H](Cc2ccccc2)NC(=O)CN2C(=O)NC3(CCCCC3)C2=O)cc1 [Example 23, 2-(2-(2,4-dioxo-1,3-diazaspiro[4.5]decan-3-yl)acetamido)-N-(4-methoxyphenyl)-N-methyl-3-phenylpropanamide] | > 100 | 5.1 ± 2 | 1.8 |  |  |  |  | 
9 | CN(C(=O)[C@H](Cc1ccccc1)NC(=O)CNC(=O)c1ccccc1)c1cccc(F)c1 [Example 39, (S)—N-(2-((1-((3-fluorophenyl)(methyl)amino)-1-oxo-3-phenylpropan-2-yl)amino)-2-oxoethyl)benzamide] | > 50 |  | 0 |  |  |  | 3 | 94
10 | CN(C(=O)[C@H](Cc1ccccc1)NC(=O)Cc1ccc2ccccc2c1)c1ccc(Cl)cc1 [Example 12, (S)—N-(4-chlorophenyl)-N-methyl-2-(2-(naphthalen-2-yl)acetamido)-3-phenylpropanamide] | < 50 | 0.63 ± 0.02 | 7.0 |  |  |  |  | 
11 | CN(C(=O)[C@H](Cc1ccccc1)NC(=O)Cc1ccc2ccccc2c1)c1ccccc1 [Example 10, (S)—N-methyl-2-(2-(naphthalen-2-yl)acetamido)-N,3-diphenylpropanamide] | < 50 |  | 4.8 |  |  |  | 40 | 98
12 | Cc1ccc(C)c2c1NC(=O)C2CC(=O)N[C@@H](Cc1ccccc1)C(=O)N(C)c1cccc(F)c1 (stereo partly drawn) [Example 7, (2S)-2-(2-(4,7-dimethyl-2-oxoindolin-3-yl)acetamido)-N-(3-fluorophenyl)-N-methyl-3-phenylpropanamide] | 60 ± 6 | 5.2 ± 0.4 | −1.8 |  |  |  |  | 
13 | CN(C(=O)[C@H](Cc1ccccc1)NC(=O)CNC(=O)c1ccccc1)c1ccc(Cl)cc1 [Example 36, (S)—N-(2-((1-((4-chlorophenyl)(methyl)amino)-1-oxo-3-phenylpropan-2-yl)amino)-2-oxoethyl)benzamide] | > 50 | 0.88 ± 0.02 | 4.1 |  |  |  |  | 
14 | CN(C(=O)[C@H](Cc1ccccc1)NC(=O)CN1C(=O)NC2(CCCCC2)C1=O)c1cccc(F)c1 [Example 26, 2-(2-(2,4-dioxo-1,3-diazaspiro[4.5]decan-3-yl)acetamido)-N-(3-fluorophenyl)-N-methyl-3-phenylpropanamide] | > 50 |  | 1.3 |  |  |  | 24 | 98
15 | Cc1cccc2c1NC(=O)C2CC(=O)N[C@@H](Cc1ccccc1)C(=O)N(C)c1cccc(F)c1 (stereo partly drawn) [Example 4, (2S)—N-(3-fluorophenyl)-N-methyl-2-(2-(7-methyl-2-oxoindolin-3-yl)acetamido)-3-phenylpropanamide] | > 50 |  | −0.9 |  |  |  | 0 | 93
16 | Cc1cccc2c1NC(=O)C2CC(=O)N[C@@H](Cc1ccccc1)C(=O)N(C)c1ccc(Cl)cc1 (stereo partly drawn) [Example 2, (2S)—N-(4-chlorophenyl)-N-methyl-2-(2-(7-methyl-2-oxoindolin-3-yl)acetamido)-3-phenylpropanamide] | ~50 |  | −0.4 |  |  |  | 17 | 96
17 | CN(C(=O)[C@H](Cc1ccccc1)NC(=O)Cc1cccc2ccccc12)c1ccc(Cl)cc1 [Example 18, (S)—N-(4-chlorophenyl)-N-methyl-2-(2-(naphthalen-1-yl)acetamido)-3-phenylpropanamide] | < 50 | 0.83 ± 0.03 | 7.2 |  |  |  |  | 
18 | Cc1cn(CC(=O)N[C@@H](Cc2ccccc2)C(=O)N(C)c2cccc(Br)c2)c(=O)[nH]c1=O [Example 48, (S)—N-(3-bromophenyl)-N-methyl-2-(2-(5-methyl-2,4-dioxo-3,4-dihydropyrimidin-1(2H)-yl)acetamido)-3-phenylpropanamide] | > 50 |  | 0.5 |  |  |  | 22 | 99.7
19 | Cc1cn(CC(=O)N[C@@H](Cc2ccccc2)C(=O)N(C)c2ccc(F)cc2)c(=O)[nH]c1=O [Example 46, (S)—N-(4-fluorophenyl)-N-methyl-2-(2-(5-methyl-2,4-dioxo-3,4-dihydropyrimidin-1(2H)-yl)acetamido)-3-phenylpropanamide] | > 50 |  | 0 |  |  |  | 6 | 94
20 | CCN(C(=O)[C@H](Cc1ccccc1)NC(=O)CN1C(=O)NC2(CCCCC2)C1=O)c1ccccc1 [Example 30, 2-(2-(2,4-dioxo-1,3-diazaspiro[4.5]decan-3-yl)acetamido)-N-ethyl-N,3-diphenylpropanamide] | > 100 | 7.6 ± 0.9 | 2.0 |  |  |  |  | 
21 | Cc1ccc(C)c2c1NC(=O)C2CC(=O)N[C@@H](Cc1ccccc1)C(=O)N(C)c1cccc(Cl)c1 (stereo partly drawn) [Example 9, (2S)—N-(3-chlorophenyl)-2-(2-(4,7-dimethyl-2-oxoindolin-3-yl)acetamido)-N-methyl-3-phenylpropanamide] | 43 ± 2 | 2.1 ± 0.2 | −2.4 |  |  |  |  | 
